What follows are compounds tested on human corneal endothelial cells (assay: Na+/K+-ATPase and ZO-1 immunostaining (pumping and barrier function markers)). Conditions: 1, 3, 10 μM; immunostaining after 20 days.
Format: cell-based
Procedure: *Human corneal endothelial cells (HCEC, where the cells were obtained and culturing method thereof): HCEC was cultured as follows. In short, Descemet's membrane including corneal endothelial cells was peeled off from a corneal for research purchased from the Seattle Eye Bank, and the corneal endothelial cells were mechanically peeled off with a basal membrane. After collagenase (ROCHE catalog No: 10 103 586 001) was used to detach and collect the corneal endothelial cell from the basal membrane (typically 1 mg/mL collagenase A (Roche Applied Science) was used for treatment at 37° C. for 2 hours), the cells were subjected to primary culture. The medium used was Opti-MEM I Reduced-Serum Medium, Liquid (INVITROGEN catalog No.: 31985-070) to which 8% fetal bovine serum (FBS) (BIOWEST, catalog No.: S1820-500), […] of CaCl2.2H2O (SIGMA catalog No.: C7902-500G), 0.08% of chondroitin sulfate (SIGMA catalog No.: C9819-5G), 20 μg/ml of ascorbic acid (SIGMA catalog No.: A4544-25G), 50 μg/ml of gentamicin (INVITROGEN catalog No.: 15710-064) and 5 ng/ml of EGF (INVITROGEN catalog No.: PHG0311) were added and acclimated for a 3T3 feeder cell. […] Immunostaining was applied to the cells for observation with a fluorescence microscope. […]

Compound | expression of Na+/K+-ATPase and ZO-1
C[S+]([O-])c1ccc(-c2nc(-c3ccncc3)c(-c3ccc(F)cc3)[nH]2)cc1 (stereo not drawn) [SB203580, 4-(4-fluorophenyl)-2-(4-methylsulfinylphenyl)-5-(4-pyridyl)-1H-imidazole] | express Na^+/K^+-ATPase and ZO-1 and to maintain normal functions in all cells

What follows are compounds tested on human corneal endothelial cells (assay: BrdU ELISA, one concentration per agent, human corneal endothelial cells (Example 9)). Conditions: 10 μM SB203580, 1 μM Semapimod, 3 μM BIRB796, 1 μM PH-797804, 3 μM VX-702, 3 μM LY2228820, 3 μM TAK-715, * p<0.01.
Format: cell-based
Procedure: The medium was removed from a culture dish culturing human corneal endothelial cells. PBS (-) heated to 37° C. in advance was added thereto and the cells were washed. This operation was repeated twice. After removing the PBS (-) TrypLE Select (×10) (GIBCO, A12177-01) was added and the cells were incubated for 10 minutes at 37° C. (5% CO2). The cells were then suspended in Opti-MEM (GIBCO, 31985-070) and centrifuged for 3 minutes at 1200 rpm to collect the cells. A 96-well plate was treated with an FNC coating mix (50 ml ([…], catalog number: 0407). The human corneal endothelial cells (lot: C1642-P8) were seeded in a Condition Medium for humans in the coated 96-well plate at a ratio of 3000 cells/well. The cells were cultured for 30 hours at 37° C. (5% CO2). After 30 hours, the medium was removed and changed to a serum free medium: Opti-MEM+1% P/S to culture the cells for 18 hours. […] SMC20120918), BIRB796 (Doramapimod) (Selleck Chemicals, catalog number: S1574, lot number: S157402), PH-797804 (Selleck Chemicals, catalog number: S2726, lot number: 01), VX-702 (Selleck Chemicals, catalog number: S6005, lot number: 02), LY2228820 (Selleck Chemicals, catalog number: S1494, lot number: 01), and TAK-715 (Selleck Chemical, catalog number: […] DMSO was added to the control. After 24 hours, a BrdU labeling reagent (Amersham Cell Proliferation Biotrak ELISA System, Version 2, GE Healthcare, catalog number: RPN250) was further added at a ratio of 1:1000 to the DMEM+10% FBS+1% P/S medium. […] DMSO was added to the control. After 24 hours, BrdU ELISA was carried out with Amersham Cell Proliferation Biotrak ELISA System, Version 2 (GE Healthcare, catalog number: RPN250). The absorbance at 450 nm was measured.

Compound | BrdU uptake as a percentage with respect to the control (proliferation)
Cc1ccc(-n2nc(C(C)(C)C)cc2NC(=O)Nc2ccc(OCCN3CCOCC3)c3ccccc23)cc1 [BIRB796, N-[3-tert-butyl-1-(4-methylphenyl)pyrazole-5-yl]-N′-[4-(2-morpholinoethoxy)-1-naphthyl]urea] | promotes proliferation
CC(C)(C)Cn1c(N)nc2ccc(-c3nc(C(C)(C)C)[nH]c3-c3ccc(F)cc3)nc21 [LY2228820, 5-(2-(tert-butyl)-5-(4-fluorophenyl)-1H-imidazole-4-yl)-3-neopentyl-3H-imidazo[4,5-b]pyridine-2-amine] | promotes proliferation
CNC(=O)c1ccc(C)c(-n2c(C)cc(OCc3ccc(F)cc3F)c(Br)c2=O)c1 [PH-797804, 3-(3-bromo-4-((2,4-difluorobenzyl)oxy)-6-methyl-2-oxopyridine-1(2H)-yl)-N,4-dimethylbenzamide] | promotes proliferation
C[S+]([O-])c1ccc(-c2nc(-c3ccncc3)c(-c3ccc(F)cc3)[nH]2)cc1 (stereo not drawn) [SB203580, 4-(4-fluorophenyl)-2-(4-methylsulfinylphenyl)-5-(4-pyridyl)-1H-imidazole] | promotes proliferation
CCc1nc(-c2cccc(C)c2)c(-c2ccnc(NC(=O)c3ccccc3)c2)s1 [TAK-715, 2-benzamide-4-[2-ethyl-4-(3-methylphenyl)thiazole-5-yl]pyridine] | promotes proliferation
